Test results taken from ChEMBL document CHEMBL1201862, “PubChem BioAssay data set” (2004).
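Compound exposure: 48 hours, 5 concentrations, 96-well plates. GI50: concentration for 50% inhibition of growth.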 The source made the active and inactive calls. Rule as the data show it: active = GI50 up to about 1.1 µM and inactive = higher.

Key:
Test in all cases: NCI tumour cell line growth inhibition, 48 h
786-0 = system: 786-0
A498 = system: A498
DLD-1 = system: DLD-1
HCT-116 = system: HCT-116
HL-60 = system: HL-60
HT-29 = system: HT-29
IGROV-1 = system: IGROV-1
LOX IMVI = system: LOX IMVI
M14 = system: M14
MDA-N = system: MDA-N
NCI-H226 = system: NCI-H226
NCI-H522 = system: NCI-H522
NCI/ADR-RES = system: NCI/ADR-RES
OVCAR-8 = system: OVCAR-8
PC-3 = system: PC-3
SF-268 = system: SF-268
SK-MEL-5 = system: SK-MEL-5
SN12C = system: SN12C
TK-10 = system: TK-10
UO-31 = system: UO-31

Structure (SMILES) | GI50 (786-0) | GI50 (A498) | GI50 (DLD-1) | GI50 (HCT-116) | GI50 (HL-60) | GI50 (HT-29) | GI50 (IGROV-1) | GI50 (LOX IMVI) | GI50 (M14) | GI50 (MDA-N) | GI50 (NCI-H226) | GI50 (NCI-H522) | GI50 (NCI/ADR-RES) | GI50 (OVCAR-8) | GI50 (PC-3) | GI50 (SF-268) | GI50 (SK-MEL-5) | GI50 (SN12C) | GI50 (TK-10) | GI50 (UO-31)
CCOC(=O)CSc1nnc(CSc2nc(-c3ccccc3)c(-c3ccccc3)[nH]2)n1-c1ccccc1 | 24.6 µM (inactive) | 17.9 µM (inactive) | > 100 µM (inactive) | > 56.5 µM (inactive) | 49.5 µM (inactive) | 48.8 µM (inactive) | > 83 µM (inactive) | > 61.5 µM (inactive) | > 45 µM (inactive) | 75.3 µM (inactive) | 42.3 µM (inactive) | > 87.7 µM (inactive) | 61.9 µM (inactive) | 18.7 µM (inactive) | 20.7 µM (inactive) | 26.1 µM (inactive) | > 100 µM (inactive) | 18.9 µM (inactive) | 17 µM (inactive) | 18.2 µM (inactive)
Nc1nc(N)c2cc(CNc3ccc(C(=O)NC(CC(=O)O)C(=O)O)c(Cl)c3)ccc2n1 (stereo not drawn) | 0.0736 µM (active) | 0.171 µM (active) | 0.038 µM (active) | < 0.01 µM (active) | 14.3 µM (inactive) | < 0.0143 µM (active) | 0.112 µM (active) | < 0.01 µM (active) | 0.0743 µM (active) | < 0.01 µM (active) | > 21.6 µM (inactive) | 0.502 µM (active) | < 0.0282 µM (active) | 0.032 µM (active) | 10.1 µM (inactive) | 0.0582 µM (active) | 0.162 µM (active) | 0.278 µM (active) | 0.0803 µM (active) | 0.918 µM (active)
O=C(CC1(O)C(=O)Nc2c(Cl)cc(Cl)cc21)c1cccc([N+](=O)[O-])c1 (stereo not drawn) | 22.2 µM (inactive) | 27.9 µM (inactive) | 43.2 µM (inactive) | 19.8 µM (inactive) |  | 28.9 µM (inactive) | 18.2 µM (inactive) | 17 µM (inactive) | 22.8 µM (inactive) | 18.9 µM (inactive) | 31.6 µM (inactive) | 67 µM (inactive) | 29 µM (inactive) | 29.9 µM (inactive) | 32.1 µM (inactive) | 44.4 µM (inactive) | 17.2 µM (inactive) | 24.7 µM (inactive) | > 55.8 µM (inactive) | 38.6 µM (inactive)
COC(=O)NC1C(C)OC(OC2C/C=C(/C)C3C=CC4C(OC5CC(OC6CC(O)C(OC7CC(O)C(OC)C(C)O7)C(C)O6)C(O)C(C)O5)C(C)CC(C)C4C3(C)C(=O)C3=C(O)C4(CC(C)C(CO)=CC4/C=C\2C)OC3=O)CC1(C)[N+](=O)[O-] (stereo not drawn) | 9.93 µM (inactive) | 15.6 µM (inactive) | 12.7 µM (inactive) | 5.36 µM (inactive) | 4.51 µM (inactive) | 15.7 µM (inactive) | 8.93 µM (inactive) | 11.5 µM (inactive) | 9.29 µM (inactive) | 9.55 µM (inactive) | 11.7 µM (inactive) | 5.69 µM (inactive) | 69.5 µM (inactive) | 9.38 µM (inactive) | 15.9 µM (inactive) | 14.8 µM (inactive) | 15.6 µM (inactive) | 12.9 µM (inactive) | 10 µM (inactive) | 17.1 µM (inactive)
O=c1c(-c2cccc3ccccc23)c(-c2cccc3ccccc23)c1=O | 0.535 µM (active) | 2.45 µM (inactive) | 3.28 µM (inactive) | 1.85 µM (inactive) | 0.721 µM (active) | 0.35 µM (active) | 2.6 µM (inactive) | 1.77 µM (inactive) | 2.24 µM (inactive) |  | 2.32 µM (inactive) | 0.489 µM (active) |  | 2.81 µM (inactive) |  | 5.47 µM (inactive) | 3 µM (inactive) | 5.06 µM (inactive) | 15.1 µM (inactive) | 11.8 µM (inactive)
Cn1ccnc1CCc1c(Cl)cccc1Cl | > 100 µM (inactive) | > 100 µM (inactive) | > 100 µM (inactive) | > 100 µM (inactive) | > 100 µM (inactive) | > 100 µM (inactive) | > 100 µM (inactive) | > 100 µM (inactive) | > 100 µM (inactive) |  | > 100 µM (inactive) | > 100 µM (inactive) |  | > 100 µM (inactive) |  | > 100 µM (inactive) | > 100 µM (inactive) | > 100 µM (inactive) | > 100 µM (inactive) | 71.3 µM (inactive)
